Data taken from US20230277538A1, “THERAPEUTICS FOR THE TREATMENT OF FSHD” (UCL BUSINESS LTD, priority 2020, published 2023).
Residues, ends and D or L forms follow the SMILES beside them. *: point of attachment. Cbz = O=C(OCc1ccccc1)*; CH2F = FC*

What was measured:
[1] = test system: Cre-inducible FLExDUX4 mice; assay: In vivo GSK'872 treatment of tamoxifen-induced Cre-inducible FLExDUX4 mice; parameters: species or system mouse; settings: GSK'872 2 mg/kg for 5 days IP; tamoxifen 10 mg/kg for 2 days IP; mice killed at 7 weeks
Method: Mice were killed at the age of 7 weeks. (A) Total body weight was measured at day 0 and 7. Y-axis represents the weight after tamoxifen at D7 relative to the weight before tamoxifen injection at DO. (BC) Weights of the tibialis anterior (TA) (B) and quadriceps (C) were measured at D7. (DE) Expression levels of 2 genes (Tm7sf4 (D) and DuxBl (E)) downstream of DUX4 were measured in the quadriceps. Y-axis represents arbitrary units relative to Psma2. • * P<0.05, **P<0.01, ***P<0.001, one-way ANOVA followed by a Tukey's multiple comparison test.
Three-week-old animals were weighted 3 times a week, after weaning. The tamoxifen (MP Biomedicals) injections were realized according to Jones et al (Jones, 2018). Six-week-old mice were injected (IP) with Tamoxifen (TMX) on two consecutive days for a final concentration of 10 mg/kg. Following TMX injection, animals were daily weighed, and sacrificed after a week. Muscles were harvested and frozen in liquid nitrogen or liquid-nitrogen-cooled isopentane for further analysis.

iC2C12-DUX4 myoblasts = assay: Cell viability (ATP assay, CellTiter-Glo) of dox-induced iC2C12-DUX4 myoblasts with death inhibitors; type: cell-based, mouse; settings: for increase in the number of viable cells: inhibitor present; for optimal dose from dose response: with or without doxycycline 200 ng/ml, 24 hours after dox induction
Method: (A) Cell viability of iC2C12-DUX4 myoblasts at 48 h of induction without or with dox (200 ng/ml) and treatment with various concentrations of the pan-caspase inhibitor Z-VAD (μM). […] Ctrl: DMSO alone.
FIG. 10: Role of necroptosis in the DUX4 mediated cell death. Several death inhibitors were added at different concentrations alone to iC2C12 myoblasts in presence or not of Doxycycline 200 ng/ml.
For myoblast experiments, iC2C12-Dux4 were seeded into white 96-well plates (3000 cells per well) in growth medium. After 24 h, DUX4 expression was induced by adding doxycycline (Sigma-Aldrich) at a final concentration of 50 to 1000 ng/mL. For myotubes experiments, iC2C12-Dux4 were seeded into white 96-well plates (1500 cells per well) in growth medium. After 48 h, cells were differentiated with DMEM, 2% horse serum and 10 μg/mL insulin. […] Inhibition of apoptosis and/or necroptosis was simultaneously realized to DUX4 induction for 24 h using 20 μM of pan-caspase inhibitor Z-VAD.fmk (Merk Chemicals), 30 μM Necrostatin-1, 3 μM GSK872, 0.2 Cyclosporin A (Cambridge Bioscience). Cell survival was determined by CellTiter-Glo luminescent cell viability assay (Promega), membrane permeability by CytoTox-Glo cytotoxicity assay (Promega) and caspase activation by Caspase-Glo 3/7 Assay (Promega) according to the manufacturer's instructions. Luminescence was read by a microplate reader Tecan.
The iC2C12-DUX4 viability was assessed for 2 different doses of dox and the results are expressed as the percentage of cells alive in the presence of the different compounds compared to the condition without them. Z-VAD was always added to eliminate any bias linked to caspases 3/7 activation/synergic effect.

iC2C12-DUX4 myotubes = assay: cells; type: cell-based, mouse
Method: FIG. 4: Ripk3 inhibition decreases DUX4-mediated cell death in iC2C12-DUX4 myotubes. (A) iC2C12-DUX4 viability in presence of dox 1000 ng/ml and treated with different doses of Z-VAD, Necrostatin-1 or GSK'872. (B) Cell viability in presence of dox 1000 ng/ml with the different compounds alone or in combination. Z: Z-vad (20 μM); N: necrostatin-1 (30 μM), N+: necrostatin-1 (90 μM), G: GSK'872 (2 μM); G+: GSK'872 (4 μM).
(§1) Inducible iC2C12-Dux4 (Bosnakovski, 2008) were cultured in DMEM high glucose with GlutaMAX and no Sodium Pyruvate (Gibco), 20% fetal bovine serum, and 800 μg/mL G418 (Gibco). For myoblast experiments, iC2C12-Dux4 were seeded into white 96-well plates (3000 cells per well) in growth medium. After 24 h, DUX4 expression was induced by adding doxycycline (Sigma-Aldrich) at a final concentration of 50 to 1000 ng/mL. For myotubes experiments, iC2C12-Dux4 were seeded into white 96-well plates (1500 cells per well) in growth medium. After 48 h, cells were differentiated with DMEM, 2% horse serum and 10 μg/mL insulin. DUX4 expression was induced after 4 days of differentiation to not disturb myotube formation (Bosnakovski, 2008). Inhibition of apoptosis and/or necroptosis was simultaneously realized to DUX4 induction for 24 h using 20 μM of pan-caspase inhibitor Z-VAD.fmk (Merk Chemicals), 30 μM Necrostatin-1, 3 μM GSK872, 0.2 Cyclosporin A (Cambridge Bioscience). Cell survival was determined by CellTiter-Glo luminescent cell viability assay (Promega), membrane permeability by CytoTox-Glo cytotoxicity assay (Promega) and caspase activation by Caspase-Glo 3/7 Assay (Promega) according to the manufacturer's instructions. Luminescence was read by a microplate reader Tecan.
The effects of the different inhibitors on iC2C12-DUX4 myotubes were investigated. Again, the results are expressed as the percentage of live cells in the presence of the different compounds compared to the control condition without. No effect of Z-VAD were observed arguing against a major role of caspases in DUX4-mediated toxicity (FIG. 4A). When the cells were cultivated with necrostatin-1 in the presence of dox (1000 ng/ml), necrostatin-1 concentrations […] 60 μM conferred a protection against cell death (up to 60%±6 of viable cells in presence of 60 μM necrostatin-1 compared to 39%±1 without, FIG. 4A), necrostatin-1 concentrations of 150 or 300 μM leading to up to 85%±2 viable cells (FIG. 4A). […] The different compounds were next added separately or together to iC2C12-DUX4 myotubes that were incubated with dox (1000 ng/ml). […] Indeed, at low (2 μM) or high (4 μM) concentration, GSK'872 increased cell viability by 2.1 fold (FIG. 4D). […] Ripk3 but also to a lesser extent Ripk1, participated in DUX4-mediated cell toxicity.

Caspase 3/7 = assay: Caspase-Glo 3/7 Assay in iC2C12-DUX4 cells; type: cell-based, mouse; settings: Z-Vad 30 μM or 50 μM, different concentrations of doxycycline
Method: FIG. 9: Apoptosis is not involved in iC2C12-DUX4 death. (A) Cell viability on iC2C12-DUX4 myoblasts in the presence of different concentrations of DMSO induced a non-specific increase of cell survival. […] Caspase 3/7 activity was measured using the Caspase-Glo 3/7 Assay (Promega) according to the manufacturer's instructions.
as §1, with “Inhibition of apoptosis and/or necroptosis was simultaneously realized to DUX4 induction for 24 h using 20 μM of pan-caspase inhibitor Z-VAD.fmk (Merk Chemicals), 30 μM Necrostatin-1, 3 μM GSK872, 0.2 Cyclosporin A (Cambridge Bioscience).” left out

[2] = test system: necroptotic genes (Ripk1, Ripk3 and Mlk1) and DUX4-network genes (Tm7sf4, mDuxb1 and Wfdc3); assay: mRNA expression of necroptotic and DUX4-network genes in treated Actal Cre-FLEx DUX4 mice; type: in vivo, mouse
Method: Dabrafenib (30 mg/kg) was given by oral (p.o.) gavage to 4-5 week old Actal Cre-FLEx DUX4 animals 5 times/week for 4 weeks. Tamoxifen was intraperitoneally weakly injected (2 mg/kg). […] Expression of necroptotic genes (Ripk1, Ripk3 and Mlk1) and DUX4-network genes (Tm7sf4, mDuxb1 and Wfdc3) were measured.
For muscles, cryopreserved tissues were transferred in tube containing 1.4 mm ceramic beads (FastPrep, MP biomedicals, UK) plus 1 mL of Trizol (Thermo Fisher Scientific, Paisley, UK) and shaken at 10000 rpm for 40 s. Total RNAs from cells or tissue were extracted using Trizol (Thermo Fisher) according the manufacturer's protocol. The quantity of RNA was determined using a nanodrop ND-1000 spectrophotometer (Thermo Scientific, Wilmington, Del., USA). Reverse transcription was performed on 1 μg of total RNA in a 10 μL final volume (Roche Transcriptor First Strand cDNA Synthesis kit). Quantitative PCR (qPCR) was designed according to the MIQE standards. qPCRs were performed on a LightCycler 480 Real-Time PCR System (Roche) in a final volume of 9 with 0.2 μL of RT product, 0.4 μM each of forward and reverse primers (see Tables 2 and 3), and 4.5 μL of SYBRGreen Mastermix (Roche).
Dabrafenib (30 mg/kg) was administered by oral (p.o.) gavage to 4-5 week old animals 5 times/week for 4 weeks. Tamoxifen was intraperitoneally injected weakly (2 mg/kg).

[3] = Mus musculus, Myotube, read-out: viable cells

`CC(C)S(=O)(=O)c1ccc2nccc(Nc3ccc4scnc4c3)c2c1` [GSK'872, Benzothiazol-5-yl-[6-(propane-2-sulfonyl)-quinolin-4-yl]-amine] was tested, and the “DUX4-mediated cell death in vivo” value [1] was “decreased DUX4-mediated cell death in vivo”, the “increase in the number of viable cells” value (iC2C12-DUX4 myoblasts; iC2C12 myoblasts) was 10% and the “optimal dose from dose response” value (iC2C12-DUX4 myoblasts; myoblasts) was 3 µM. For the same compound, the viability at 3 µM (iC2C12-DUX4 myotubes; [3]) was 67%, the viability at 6 µM (iC2C12-DUX4 myotubes; [3]) was 77% and the “increase of the number of viable cells” value (iC2C12-DUX4 myotubes; iC2C12-DUX4 myotubes, GSK'872 in combination with Z-Vad) was 2 fold. The “increase of cell viability” value (iC2C12-DUX4 myotubes; myotubes, dox 1000 ng/ml, GSK'872 low (2 μM) or high (4 μM) concentration) was 2.1 fold.
In the case of `COC(=O)C[C@H](NC(=O)[C@H](C)NC(=O)[C@@H](NC(=O)OCc1ccccc1)C(C)C)C(=O)CF` [Z-VAD] (Cbz-Val-Ala-Asp(OMe)-CH2F), the “percentage of viable cells” value (iC2C12-DUX4 myoblasts; iC2C12 myoblasts, addition of Z-Vad) is reported as “did not modify the percentage of viable cells”, the “cell survival with and without Z-VAD” value (iC2C12-DUX4 myoblasts; myoblasts, 200 ng/ml dox, different doses of Z-VAD) is reported as “No change in cell survival” and the “caspase 3/7 activity after DUX4 expression” value (Caspase 3/7) is reported as “correctly inhibited”. For the same compound, the cell survival (iC2C12-DUX4 myotubes; iC2C12-DUX4 myotubes, Z-vad added in vitro) was “did not increase cell survival”, the “increase of cell survival” value (iC2C12-DUX4 myotubes; myotubes, dox 1000 ng/ml, Z-VAD alone (20 μM)) was 10%±10 and the “effect on live cells” value (iC2C12-DUX4 myotubes; myotubes, dox 1000 ng/ml, different doses of Z-VAD) was “No effect”.
For `CC(C)(C)c1nc(-c2cccc(NS(=O)(=O)c3c(F)cccc3F)c2F)c(-c2ccnc(N)n2)s1` [dabrafenib, N-{3-[5-(2-aminopyrimidin-4-yl)-2-tert-butylthiazol-4-yl]-2-fluorophenyl}-2,6-difluorobenzenesulfonamide], the “mean expression of Ripk1, Ripk3, Mlk1, Tm7sf4, mDuxb1 and Wfdc3 relative to untreated control animals” value ([2]; dabrafenib 30 mg/kg p.o. 5 times/week for 4 weeks, 4-5 week old animals, tamoxifen 2 mg/kg) was “decreased mean expression of almost all of these genes”.
With `Nc1cccc2c(=O)[nH][nH]c(=O)c12.[Na]` [galavit, 3-aminophthalhydrazide monosodium salt] the “mean expression of Ripk1, Ripk3, Mlk1, Tm7sf4, mDuxb1 and Wfdc3 relative to untreated control animals” value ([2]; galavit 4.5 mg/kg IP daily for 3 days, 7-8 week old males, tamoxifen 10 mg/kg day 0 and 1) was “decreased mean expression of almost all of these genes”.
With `CN1C(=O)C(Cc2c[nH]c3ccccc23)NC1=S` (stereo not shown) [necrostatin-1, 5-(1H-indol-3-ylmethyl)-3-methyl-2-sulfanylideneimidazolidin-4-one] the “increase in the number of viable cells” value (iC2C12-DUX4 myoblasts; iC2C12 myoblasts) was 20%, the “increase of cells survival” value (iC2C12-DUX4 myoblasts; myoblasts, 200 ng/ml dox, necrostatin-1 present, Z-VAD always added) was 34%±20 and the “optimal dose from dose response” value (iC2C12-DUX4 myoblasts; myoblasts) was 30 µM. It also gave a viability at 60 µM (iC2C12-DUX4 myotubes; [3]) of 60%.
